Patent US8828908B2, “Herbicidally active bicyclic 1,3-dione compounds” (Syngenta Limited, priority 2007, dated 2014)

How the values were obtained:
Type in all cases: in vivo
[1] = system: Alopecurus myosuroides (ALOMY); assay: Example A post-emergence herbicidal glasshouse test; details: 312 h, evaluated after 13 days, 100=total damage to plant, 0=no damage
Experimental: (§1) Seeds of a variety of test species were sown in standard soil in pots. After cultivation for one day (pre-emergence) or after 8 days cultivation (post-emergence) under controlled conditions in a glasshouse (at 24/16° C., day/night; 14 hours light; 65% humidity), the plants were sprayed with an aqueous spray solution derived from the formulation of the technical active ingredient in acetone/water (50:50) solution containing 0.5% Tween 20 (polyoxyethelyene sorbitan monolaurate, CAS RN 9005-64-5). The test plants were then grown in a glasshouse under controlled conditions in a glasshouse (at 24/16° C., day/night; 14 hours light; 65% humidity) and watered twice daily. After 13 days for pre and post-emergence, the test was evaluated (100=total damage to plant; 0=no damage to plant).
(§2) Alopecurus myosuroides (ALOMY), Avena fatua (AVEFA), Setaria faberi (SETFA), Echinochloa crus-galli (ECHCG), Solanum nigrum (SOLNI) and Amaranthus retroflexus (AMARE)

[2] = system: Avena fatua (AVEFA); assay: as above; details: 312 h, evaluated after 13 days, 100=total damage to plant, 0=no damage
Experimental: as §1, §2

[3] = system: Echinochloa crus-galli (ECHCG); assay: as above; details: 312 h, evaluated after 13 days, 100=total damage to plant, 0=no damage
Experimental: as §1, §2

[4] = system: Setaria faberi (SETFA); assay: as above; details: 312 h, evaluated after 13 days, 100=total damage to plant, 0=no damage
Experimental: as §1, §2

[5] = system: Amaranthus retroflexus (AMARE); assay: as above; details: 312 h, evaluated after 13 days, 100=total damage to plant, 0=no damage
Experimental: as §1, §2

[6] = system: Alopecurus myosuroides (ALOMY); assay: Example A pre-emergence herbicidal glasshouse test; details: 312 h, Rate 250 g/ha, evaluated after 13 days, 100=total damage to plant, 0=no damage to plant
Experimental: as §1, §2

[7] = system: Avena fatua (AVEFA); assay: Example A pre-emergence herbicidal glasshouse test; details: 312 h, Rate 250 g/ha, evaluated after 13 days, 100=total damage to plant, 0=no damage to plant
Experimental: as §1, §2

[8] = system: Echinochloa crus-galli (ECHCG); assay: Example A pre-emergence herbicidal glasshouse test; details: 312 h, Rate 250 g/ha, evaluated after 13 days, 100=total damage to plant, 0=no damage to plant
Experimental: as §1, §2

[9] = system: Setaria faberi (SETFA); assay: Example A pre-emergence herbicidal glasshouse test; details: 312 h, Rate 250 g/ha, evaluated after 13 days, 100=total damage to plant, 0=no damage to plant
Experimental: as §1, §2

[10] = system: Amaranthus retroflexus (AMARE); assay: Example A pre-emergence herbicidal glasshouse test; details: 312 h, Rate 250 g/ha, evaluated after 13 days, 100=total damage to plant, 0=no damage to plant
Experimental: as §1, §2

| SMILES | pest or weed control at 250 g/ha [1] | pest or weed control at 250 g/ha [2] | pest or weed control at 250 g/ha [3] | pest or weed control at 250 g/ha [4] | pest or weed control at 250 g/ha [5] | pest or weed control at 250 g/ha [6] | pest or weed control at 250 g/ha [7] | pest or weed control at 250 g/ha [8] | pest or weed control at 250 g/ha [9] | pest or weed control at 250 g/ha [10] |
| --- | --- | --- | --- | --- | --- | --- | --- | --- | --- | --- |
| CCc1ccc(-c2ccc(Cl)cc2)cc1C1=C(O)C2CC(C1=O)C2(C)C (centres unmarked) [Compound T69, 3-(4′-chloro-4-ethylbiphen-3-yl)-6,6-dimethylbicyclo[3.1.1]heptane-2,4-dione] | 70% | 80% | 100% | 100% | 0% | 20% | 0% | 100% | 90% | 0% |
| Cc1cccc(-c2ccc(C)c(C3=C(O)[C@H]4CC[C@H](C4)C3=O)c2)c1 (single isomer, unassigned) [Compound T19] | 0% | 0% | 40% | 50% | 20% | 0% | 0% | 0% | 0% | 0% |
| CCc1ccc(-c2ccc(Cl)cc2F)cc1C1=C(O)[C@H]2C=C[C@H](CC2)C1=O [Compound T57, 3-(4′-chloro-4-ethyl-2′-fluorobiphen-3-yl)bicyclo[3.2.2]non-6-ene-2,4-dione] | 30% | 40% | 100% | 100% | 0% | 0% | 0% | 50% | 90% | 0% |
| CCc1ccc(-c2ccc(Cl)nc2C)cc1C1=C(O)[C@H]2CC[C@H](C2)C1=O (single isomer, unassigned) [Compound T79] | 40% | 20% | 90% | 100% | 0% | 0% | 0% | 0% | 70% | 0% |
| Cc1ccc(-c2ccccc2C(F)(F)F)cc1C1=C(O)[C@H]2CC[C@H](C2)C1=O (single isomer, unassigned) [Compound T21] | 0% | 0% | 0% | 20% | 0% | 0% | 0% | 0% | 0% | 0% |
| Cc1ccc(-c2cccc(Cl)c2C)cc1C1=C(O)[C@H]2CC[C@H](C2)C1=O (single isomer, unassigned) [Compound T48] | 0% | 20% | 40% | 40% | 0% | 0% | 0% | 0% | 0% | 0% |
| CCc1cc(-c2ccc(C)cc2)ccc1C1=C(O)[C@H]2CC[C@H](C2)C1=O (single isomer, unassigned) [Compound T60] | 90% | 50% | 100% | 100% | 0% | 60% | 30% | 100% | 100% | 0% |
| Cc1ccc(-c2cccc(Cl)c2F)cc1C1=C(O)[C@H]2CC[C@H](C2)C1=O (single isomer, unassigned) [Compound T46] | 0% | 0% | 0% | 0% | 0% | 0% | 0% | 0% | 0% | 0% |
| Cc1ccc(-c2ccc(F)c(F)c2)cc1C1=C(O)[C@H]2CC[C@H](C2)C1=O (single isomer, unassigned) [Compound T9] | 10% | 40% | 70% | 80% | 0% | 0% | 0% | 0% | 50% | 0% |
| Cc1ccc(-c2ccccc2C)cc1C1=C(O)[C@H]2CC[C@H](C2)C1=O (single isomer, unassigned) [Compound T18] | 0% | 0% | 0% | 0% | 0% | 0% | 0% | 0% | 0% | 0% |
| Cc1ccc(-c2cc(F)cc(Cl)c2)cc1C1=C(O)[C@H]2CC[C@H](C2)C1=O (single isomer, unassigned) [Compound T47] | 0% | 0% | 30% | 0% | 0% | 0% | 0% | 0% | 0% | 0% |
| Cc1cc(-c2ccccc2)ccc1C1=C(O)[C@H]2CC[C@H](C2)C1=O (single isomer, unassigned) [Compound T58] | 60% | 0% | 70% | 100% | 0% | 10% | 0% | 40% | 20% | 30% |
| Cc1ccc(-c2ccc(C)c(C3=C(O)[C@H]4CC[C@H](C4)C3=O)c2)cc1 (single isomer, unassigned) [Compound T20] | 20% | 0% | 60% | 50% | 0% | 10% | 0% | 40% | 0% | 0% |
| CCc1ccc(-c2ccc(Cl)cc2C(F)(F)F)cc1C1=C(O)[C@H]2CC[C@H](C2)C1=O (single isomer, unassigned) [Compound T45] | 30% | 0% | 60% | 70% | 0% | 0% | 0% | 0% | 0% | 0% |
| CCc1ccc(-c2ccc(Cl)nc2)cc1C1=C(O)[C@H]2CC[C@H](C2)C1=O (single isomer, unassigned) [Compound T78] | 70% | 60% | 100% | 100% | 0% | 40% | 30% | 60% | 90% | 0% |
| Cc1ccc(-c2cc(Cl)ccc2Cl)cc1C1=C(O)[C@H]2CC[C@H](C2)C1=O (single isomer, unassigned) [Compound T51] | 0% | 0% | 0% | 0% | 0% | 0% | 0% | 0% | 0% | 0% |
| Cc1ccc(-c2ccc(C(F)(F)F)cc2)cc1C1=C(O)[C@H]2CC[C@H](C2)C1=O (single isomer, unassigned) [Compound T23] | 60% | 60% | 90% | 100% | 0% | 50% | 0% | 90% | 100% | 0% |
